Experimental data taken from ChEMBL document CHEMBL1201861, “Genomics of Drug Sensitity in Cancer screening data, Wellcome Trust Sanger Institute”.

Legend:
Test in all cases: cells
Conditions in all cases: Homo sapiens
[1] = system: Ca9-22; assay type: functional, cell-based;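 further: growth inhibition of Ca9-22 cells, read out with a cell viability assay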
Description: SANGER: Inhibition of human Ca9-22 cell growth in a cell viability assay.

[2] = system: DK-MG; assay type: functional, cell-based;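 further: growth inhibition of DK-MG cells, read out with a cell viability assay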
Description: SANGER: Inhibition of human DK-MG cell growth in a cell viability assay.

[3] = system: DMS-273; assay type: functional, cell-based
Description: SANGER: Inhibition of human DMS-273 cell growth in a cell viability assay.

[4] = system: DOK; assay type: functional, cell-based;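 further: cell viability assay read-out, values reflect inhibition of cell growth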
Description: SANGER: Inhibition of human DOK cell growth in a cell viability assay.

[5] = system: ESS-1; assay type: functional, cell-based;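 further: growth inhibition of human ESS-1 cells, read out by a cell viability assay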
Description: SANGER: Inhibition of human ESS-1 cell growth in a cell viability assay.

[6] = system: GCT; assay type: functional, cell-based;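 further: GCT cell line proliferation inhibition, read out with a cell viability assay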
Description: SANGER: Inhibition of human GCT cell growth in a cell viability assay.

[7] = system: HCC1806; assay type: functional, cell-based;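 further: growth inhibition of the cancer cell line, determined with a cell viability assay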
Description: SANGER: Inhibition of human HCC1806 cell growth in a cell viability assay.

[8] = system: HEC-1; assay type: functional, cell-based;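 further: growth inhibition of the cell line, read out with a cell viability assay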
Description: SANGER: Inhibition of human HEC-1 cell growth in a cell viability assay.

[9] = system: HGC-27; assay type: functional, cell-based;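 further: growth inhibition of human HGC-27 cells, read out in a cell viability assay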
Description: SANGER: Inhibition of human HGC-27 cell growth in a cell viability assay.

[10] = system: HO-1-N-1; assay type: functional, cell-based;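 further: growth inhibition of human HO-1-N-1 cells, read out with a cell viability assay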
Description: SANGER: Inhibition of human HO-1-N-1 cell growth in a cell viability assay.

[11] = system: HPAF-II; assay type: functional, cell-based;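 further: growth inhibition of HPAF-II cells, read out with a cell viability assay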
Description: SANGER: Inhibition of human HPAF-II cell growth in a cell viability assay.

[12] = system: HT-29; assay type: functional, cell-based;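 further: growth inhibition of human HT-29 cells, read out by a cell viability assay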
Description: SANGER: Inhibition of human HT-29 cell growth in a cell viability assay.

[13] = system: HuO-3N1; assay type: functional, cell-based;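 further: cell viability readout used to measure how strongly compounds suppress proliferation of human HuO-3N1 cells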
Description: SANGER: Inhibition of human HuO-3N1 cell growth in a cell viability assay.

[14] = system: HuP-T3; assay type: functional, cell-based;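 further: HuP-T3 cell growth inhibition, read out with a cell viability assay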
Description: SANGER: Inhibition of human HuP-T3 cell growth in a cell viability assay.

[15] = system: KP-N-YN; assay type: functional, cell-based;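 further: growth inhibition of KP-N-YN cells, read out with a cell viability assay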
Description: SANGER: Inhibition of human KP-N-YN cell growth in a cell viability assay.

[16] = system: LCLC-103H cell line; assay type: functional, cell-based
Description: SANGER: Inhibition of human LCLC-103H cell growth in a cell viability assay.

[17] = system: LCLC-97TM1; assay type: functional, cell-based;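 further: cell viability assay measuring growth inhibition of human LCLC-97TM1 cells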
Description: SANGER: Inhibition of human LCLC-97TM1 cell growth in a cell viability assay.

[18] = system: LN-405; assay type: functional, cell-based
Description: SANGER: Inhibition of human LN-405 cell growth in a cell viability assay.

[19] = system: MC-IXC; assay type: functional, cell-based;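 further: growth inhibition of MC-IXC cells, read out with a cell viability assay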
Description: SANGER: Inhibition of human MC-IXC cell growth in a cell viability assay.

[20] = system: MCF7; assay type: functional, cell-based;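 further: growth inhibition of human MCF7 cells, read out with a cell viability assay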
Description: SANGER: Inhibition of human MCF7 cell growth in a cell viability assay.

[21] = system: MDA-MB-157; assay type: functional, cell-based
Description: SANGER: Inhibition of human MDA-MB-157 cell growth in a cell viability assay.

[22] = system: MDA-MB-361; assay type: functional, cell-based
[23] = system: MEL-HO; assay type: functional, cell-based
Description: SANGER: Inhibition of human MEL-HO cell growth in a cell viability assay.

[24] = system: MeWo; assay type: functional, cell-based;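 further: growth inhibition of MeWo cells, determined by a cell viability readout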
Description: SANGER: Inhibition of human Mewo cell growth in a cell viability assay.

[25] = system: NCI-H1563; assay type: functional, cell-based;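 further: growth inhibition of human NCI-H1563 cells, read out with a cell viability assay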
Description: SANGER: Inhibition of human NCI-H1563 cell growth in a cell viability assay.

[26] = system: NCI-H2052; assay type: functional, cell-based;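 further: growth inhibition of NCI-H2052 cells, read out with a cell viability assay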
Description: SANGER: Inhibition of human NCI-H2052 cell growth in a cell viability assay.

[27] = system: NCI-H2228; assay type: functional, cell-based;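 further: growth inhibition of human NCI-H2228 cells, read out by a cell viability assay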
Description: SANGER: Inhibition of human NCI-H2228 cell growth in a cell viability assay.

[28] = system: NCI-H292; assay type: functional, cell-based;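 further: growth inhibition of NCI-H292 cells, read out with a cell viability assay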
Description: SANGER: Inhibition of human NCI-H292 cell growth in a cell viability assay.

[29] = system: NCI-H460; assay type: functional, cell-based;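 further: cell viability assay scoring growth inhibition of human NCI-H460 cells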
Description: SANGER: Inhibition of human NCI-H460 cell growth in a cell viability assay.

[30] = system: NCI-H810; assay type: functional, cell-based;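 further: IC50 reflects inhibition of cancer cell line growth, read out with a cell viability assay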
Description: SANGER: Inhibition of human NCI-H810 cell growth in a cell viability assay.

[31] = system: OAW-28; assay type: functional, cell-based;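 further: growth inhibition of OAW-28 cells, read out with a cell viability assay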
Description: SANGER: Inhibition of human OAW-28 cell growth in a cell viability assay.

[32] = system: OVCAR-3; assay type: functional, cell-based;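 further: growth inhibition of human OVCAR-3 cells, determined by a cell viability assay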
Description: SANGER: Inhibition of human OVCAR-3 cell growth in a cell viability assay.

[33] = system: RO82-W-1; assay type: functional, cell-based;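 further: growth inhibition of human RO82-W-1 cells, measured with a cell viability assay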
Description: SANGER: Inhibition of human RO82-W-1 cell growth in a cell viability assay.

[34] = system: S-117; assay type: functional, cell-based
Description: SANGER: Inhibition of human S-117 cell growth in a cell viability assay.

[35] = system: SAS; assay type: functional, cell-based;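 further: growth inhibition of SAS cells, read out with a cell viability assay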
Description: SANGER: Inhibition of human SAS cell growth in a cell viability assay.

[36] = system: SCC-4; assay type: functional, cell-based;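 further: growth inhibition of human SCC-4 cells, read out as cell viability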
Description: SANGER: Inhibition of human SCC-4 cell growth in a cell viability assay.

[37] = system: SK-HEP1; assay type: functional, cell-based, SK-HEP-1;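 further: cell viability readout used to quantify reduction in proliferation of human SK-HEP-1 cells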
Description: SANGER: Inhibition of human SK-HEP-1 cell growth in a cell viability assay.

[38] = system: SNU-423; assay type: functional, cell-based
Description: SANGER: Inhibition of human SNU-423 cell growth in a cell viability assay.

[39] = system: SW1417; assay type: functional, cell-based;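 further: growth inhibition of human SW1417 cells, read out with a cell viability assay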
Description: SANGER: Inhibition of human SW1417 cell growth in a cell viability assay.

[40] = system: SW48; assay type: functional, cell-based;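 further: growth inhibition of SW48 cells, read out with a cell viability assay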
Description: SANGER: Inhibition of human SW48 cell growth in a cell viability assay.

[41] = system: SW626; assay type: functional, cell-based;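 further: growth inhibition of SW626 cells, measured with a cell viability assay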
Description: SANGER: Inhibition of human SW626 cell growth in a cell viability assay.

[42] = system: 647-V; assay type: functional, cell-based;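 further: growth inhibition of 647-V cells, read out with a cell viability assay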
Description: SANGER: Inhibition of human 647-V cell growth in a cell viability assay.

[43] = system: 786-0; assay type: functional, cell-based
Description: SANGER: Inhibition of human 786-0 cell growth in a cell viability assay.

[44] = system: 8505C; assay type: functional, cell-based
Description: SANGER: Inhibition of human 8505C cell growth in a cell viability assay.

[45] = system: A 172; assay type: functional, cell-based;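 further: growth inhibition of A172 cells, measured with a cell viability readout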
Description: SANGER: Inhibition of human A172 cell growth in a cell viability assay.

[46] = system: A-375; assay type: functional, cell-based;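 further: growth inhibition of A375 cells, read out with a cell viability assay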
Description: SANGER: Inhibition of human A375 cell growth in a cell viability assay.

[47] = system: ACHN; assay type: functional, cell-based;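 further: cell viability read-out used to gauge how strongly growth of human ACHN cells is suppressed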
Description: SANGER: Inhibition of human ACHN cell growth in a cell viability assay.

[48] = system: BEN; assay type: functional, cell-based;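 further: growth inhibition of the BEN cell line, read out with a cell viability assay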
Description: SANGER: Inhibition of human BEN cell growth in a cell viability assay.

[49] = system: BPH-1; assay type: functional, cell-based;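 further: cell viability assay measuring growth inhibition of human BPH-1 cells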
Description: SANGER: Inhibition of human BPH-1 cell growth in a cell viability assay.

[50] = system: BT-20; assay type: functional, cell-based;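 further: cell viability assay measuring suppression of growth in human BT-20 cells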
Description: SANGER: Inhibition of human BT-20 cell growth in a cell viability assay.

[51] = system: CAL-39; assay type: functional, cell-based;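 further: cell viability assay measuring growth inhibition of CAL-39 cells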
Description: SANGER: Inhibition of human CAL-39 cell growth in a cell viability assay.

[52] = system: CAL-54; assay type: functional, cell-based;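 further: growth inhibition of CAL-54 cells, read out by a viability measurement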
Description: SANGER: Inhibition of human CAL-54 cell growth in a cell viability assay.

[53] = system: U-118-MG; assay type: functional, cell-based
Description: SANGER: Inhibition of human U-118-MG cell growth in a cell viability assay.

[54] = system: YAPC; assay type: functional, cell-based;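 further: growth inhibition of YAPC cells, measured with a cell viability assay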
Description: SANGER: Inhibition of human YAPC cell growth in a cell viability assay.

[55] = system: COLO-678; assay type: functional, cell-based
Description: SANGER: Inhibition of human COLO-678 cell growth in a cell viability assay.

[56] = system: TGW; assay type: functional, cell-based;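 further: growth inhibition of human TGW cells, read out with a cell viability assay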
Description: SANGER: Inhibition of human TGW cell growth in a cell viability assay.

Cn1cc(/C=C2\C(=O)Nc3cccnc32)c2ccccc21
IC50 [1]: > 2000 nM
IC50 [2]: > 2000 nM
IC50 [3]: > 2000 nM
IC50 [4]: > 2000 nM
IC50 [5]: > 2000 nM
IC50 [6]: > 2000 nM
IC50 [7]: > 2000 nM
IC50 [8]: > 2000 nM
IC50 [9]: > 2000 nM
IC50 [10]: > 2000 nM
IC50 [11]: > 2000 nM
IC50 [12]: > 2000 nM
IC50 [13]: > 2000 nM
IC50 [14]: > 2000 nM
IC50 [15]: > 2000 nM
IC50 [16]: > 2000 nM
IC50 [17]: > 2000 nM
IC50 [18]: > 2000 nM
IC50 [19]: > 2000 nM
IC50 [20]: > 2000 nM
IC50 [21]: > 2000 nM
IC50 [22]: > 2000 nM
IC50 [23]: > 2000 nM
IC50 [24]: > 2000 nM
IC50 [25]: > 2000 nM
IC50 [26]: > 2000 nM
IC50 [27]: > 2000 nM
IC50 [28]: > 2000 nM
IC50 [29]: > 2000 nM
IC50 [30]: > 2000 nM
IC50 [31]: > 2000 nM
IC50 [32]: > 2000 nM
IC50 [33]: > 2000 nM
IC50 [34]: > 2000 nM
IC50 [35]: > 2000 nM
IC50 [36]: > 2000 nM
IC50 [37]: > 2000 nM
IC50 [38]: > 2000 nM
IC50 [39]: > 2000 nM
IC50 [40]: > 2000 nM
IC50 [41]: > 2000 nM
IC50 [42]: > 2000 nM
IC50 [43]: > 2000 nM
IC50 [44]: > 2000 nM
IC50 [45]: > 2000 nM
IC50 [46]: > 2000 nM
IC50 [47]: > 2000 nM
IC50 [48]: > 2000 nM
IC50 [49]: > 2000 nM
IC50 [50]: > 2000 nM
IC50 [51]: > 2000 nM
IC50 [52]: > 2000 nM
IC50 [53]: > 2000 nM
IC50 [54]: > 2000 nM
IC50 [55]: > 2000 nM

CC[C@]1(O)C[C@@H]2CN(CCc3c([nH]c4ccccc34)[C@@](C(=O)OC)(c3cc4c(cc3OC)N(C)[C@H]3[C@@](O)(C(=O)OC)[C@H](OC(C)=O)[C@]5(CC)C=CCN6CC[C@]43[C@@H]65)C2)C1 [VINBLASTINE]
IC50 [1]: 6.39 nM
IC50 [2]: 6.65 nM
IC50 [3]: 3.4 nM
IC50 [4]: 4.2 nM
IC50 [5]: 4.88 nM
IC50 [6]: 4.73 nM
IC50 [7]: 0.63 nM
IC50 [8]: 11.4 nM
IC50 [9]: 1.01 nM
IC50 [10]: 1.76 nM
IC50 [11]: 40 nM
IC50 [12]: 45.9 nM
IC50 [13]: 4.83 nM
IC50 [14]: 18 nM
IC50 [15]: 46.4 nM
IC50 [16]: 1.5 nM
IC50 [17]: 5.49 nM
IC50 [18]: 12.4 nM
IC50 [19]: 2.99 nM
IC50 [20]: 31.6 nM
IC50 [21]: 9.06 nM
IC50 [22]: 1.66 nM
IC50 [23]: 53.9 nM
IC50 [24]: 9.13 nM
IC50 [25]: 21.5 nM
IC50 [26]: 24.6 nM
IC50 [27]: 41.1 nM
IC50 [28]: 3.03 nM
IC50 [29]: 46.4 nM
IC50 [30]: 68.7 nM
IC50 [31]: 40.7 nM
IC50 [32]: 46.9 nM
IC50 [33]: 5.57 nM
IC50 [34]: 5.58 nM
IC50 [35]: 28.1 nM
IC50 [36]: 2.39 nM
IC50 [37]: 12.1 nM
IC50 [38]: 19.5 nM
IC50 [39]: > 100 nM
IC50 [40]: 6.94 nM
IC50 [41]: 23.2 nM
IC50 [42]: 23 nM
IC50 [43]: 15.6 nM
IC50 [44]: 3.11 nM
IC50 [45]: 9.62 nM
IC50 [46]: 23.5 nM
IC50 [47]: 59 nM
IC50 [48]: 81.2 nM
IC50 [49]: 3.26 nM
IC50 [50]: 37.7 nM
IC50 [51]: 5.11 nM
IC50 [52]: 60.6 nM
IC50 [53]: 45.2 nM
IC50 [54]: 87 nM
IC50 [55]: > 100 nM

Cn1c(=O)n(-c2ccc(C(C)(C)C#N)cc2)c2c3cc(-c4cnc5ccccc5c4)ccc3ncc21 [DACTOLISIB]
IC50 [1]: 33.6 nM
IC50 [2]: 180 nM
IC50 [3]: 60.9 nM
IC50 [4]: 56 nM
IC50 [5]: 135 nM
IC50 [6]: 13.7 nM
IC50 [7]: 168 nM
IC50 [8]: 67.5 nM
IC50 [9]: 18.1 nM
IC50 [10]: 25.2 nM
IC50 [11]: 156 nM
IC50 [12]: > 2000 nM
IC50 [13]: 67.3 nM
IC50 [14]: 1120 nM
IC50 [15]: > 2000 nM
IC50 [16]: 286 nM
IC50 [17]: 82.9 nM
IC50 [18]: 63.9 nM
IC50 [19]: 70.1 nM
IC50 [20]: 48.6 nM
IC50 [21]: 35.4 nM
IC50 [22]: 61 nM
IC50 [23]: 24 nM
IC50 [24]: 12 nM
IC50 [25]: 105 nM
IC50 [26]: 175 nM
IC50 [27]: 88.3 nM
IC50 [28]: 27 nM
IC50 [29]: 81.2 nM
IC50 [30]: 278 nM
IC50 [31]: > 2000 nM
IC50 [32]: 599 nM
IC50 [33]: 59.9 nM
IC50 [34]: 76.3 nM
IC50 [35]: 653 nM
IC50 [36]: 71.4 nM
IC50 [37]: 46 nM
IC50 [38]: 68 nM
IC50 [39]: > 2000 nM
IC50 [40]: 201 nM
IC50 [41]: 176 nM
IC50 [42]: 78.1 nM
IC50 [43]: 22.3 nM
IC50 [44]: 37.5 nM
IC50 [46]: 23.9 nM
IC50 [47]: 357 nM
IC50 [48]: 31.6 nM
IC50 [49]: 4.76 nM
IC50 [50]: 112 nM
IC50 [51]: 37.9 nM
IC50 [52]: 238 nM
IC50 [56]: 760 nM
IC50 [53]: 134 nM
IC50 [54]: 491 nM
IC50 [55]: > 2000 nM
